Assay [1] addresses T1, Cannabinoid receptor 1 (Homo sapiens, UniProt P21554). In kind it is functional, cell-based.
The target in assay [2] is T2, Muscarinic acetylcholine receptor M2 (Homo sapiens, UniProt P08172).
T2 sequence (P08172 whole entry): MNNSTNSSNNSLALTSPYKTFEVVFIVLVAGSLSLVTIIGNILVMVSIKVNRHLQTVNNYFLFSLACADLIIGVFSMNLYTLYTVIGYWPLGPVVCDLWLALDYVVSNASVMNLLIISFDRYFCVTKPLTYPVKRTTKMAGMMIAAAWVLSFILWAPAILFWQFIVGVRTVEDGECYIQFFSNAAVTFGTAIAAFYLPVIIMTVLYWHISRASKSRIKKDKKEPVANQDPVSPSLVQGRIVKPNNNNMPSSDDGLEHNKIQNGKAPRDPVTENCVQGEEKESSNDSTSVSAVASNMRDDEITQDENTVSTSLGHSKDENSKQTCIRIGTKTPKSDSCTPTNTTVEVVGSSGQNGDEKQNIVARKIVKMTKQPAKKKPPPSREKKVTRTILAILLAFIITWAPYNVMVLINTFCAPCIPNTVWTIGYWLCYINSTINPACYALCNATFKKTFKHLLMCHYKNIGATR
The class given is functional, cell-based.

In assay [3] the target is Sodium-dependent dopamine transporter (Homo sapiens, UniProt Q01959).
Chain of Sodium-dependent dopamine transporter (Q01959 whole entry): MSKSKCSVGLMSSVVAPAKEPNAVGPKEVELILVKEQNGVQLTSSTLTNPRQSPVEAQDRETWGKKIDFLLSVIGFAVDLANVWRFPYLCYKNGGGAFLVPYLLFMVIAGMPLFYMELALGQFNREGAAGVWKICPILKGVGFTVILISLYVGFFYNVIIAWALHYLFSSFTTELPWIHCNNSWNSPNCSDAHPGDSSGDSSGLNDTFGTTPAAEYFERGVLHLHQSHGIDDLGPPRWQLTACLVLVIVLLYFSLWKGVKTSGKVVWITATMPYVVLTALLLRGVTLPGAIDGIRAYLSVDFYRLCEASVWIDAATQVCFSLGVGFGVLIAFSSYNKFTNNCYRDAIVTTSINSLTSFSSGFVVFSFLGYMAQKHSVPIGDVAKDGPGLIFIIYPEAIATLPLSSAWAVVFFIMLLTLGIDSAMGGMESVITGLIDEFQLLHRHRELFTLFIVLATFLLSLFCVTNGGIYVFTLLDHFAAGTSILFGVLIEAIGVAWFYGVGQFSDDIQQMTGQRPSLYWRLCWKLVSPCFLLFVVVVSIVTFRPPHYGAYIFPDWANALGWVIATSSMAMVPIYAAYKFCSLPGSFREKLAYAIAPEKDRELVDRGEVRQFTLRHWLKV
Assay [4] addresses T3, Amine oxidase [flavin-containing] A (Homo sapiens, UniProt P21397).
T3 sequence (P21397 whole entry): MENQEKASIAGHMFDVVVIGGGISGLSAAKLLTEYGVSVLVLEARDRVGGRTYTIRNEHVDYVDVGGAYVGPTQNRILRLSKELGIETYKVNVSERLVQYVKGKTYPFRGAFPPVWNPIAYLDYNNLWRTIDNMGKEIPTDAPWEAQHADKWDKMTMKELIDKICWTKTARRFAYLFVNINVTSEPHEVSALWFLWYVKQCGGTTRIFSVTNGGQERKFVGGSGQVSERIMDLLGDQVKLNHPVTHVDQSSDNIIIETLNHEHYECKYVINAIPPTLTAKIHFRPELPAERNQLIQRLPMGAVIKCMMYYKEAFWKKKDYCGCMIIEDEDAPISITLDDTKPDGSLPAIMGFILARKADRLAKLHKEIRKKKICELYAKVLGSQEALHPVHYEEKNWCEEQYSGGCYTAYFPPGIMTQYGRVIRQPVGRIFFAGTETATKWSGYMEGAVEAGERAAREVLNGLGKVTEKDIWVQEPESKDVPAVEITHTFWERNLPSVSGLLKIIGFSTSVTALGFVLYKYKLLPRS
The class given is functional.

The target of another assay is T4, Adenosine receptor A3 (Homo sapiens, UniProt P0DMS8).
T4 sequence (P0DMS8 whole entry): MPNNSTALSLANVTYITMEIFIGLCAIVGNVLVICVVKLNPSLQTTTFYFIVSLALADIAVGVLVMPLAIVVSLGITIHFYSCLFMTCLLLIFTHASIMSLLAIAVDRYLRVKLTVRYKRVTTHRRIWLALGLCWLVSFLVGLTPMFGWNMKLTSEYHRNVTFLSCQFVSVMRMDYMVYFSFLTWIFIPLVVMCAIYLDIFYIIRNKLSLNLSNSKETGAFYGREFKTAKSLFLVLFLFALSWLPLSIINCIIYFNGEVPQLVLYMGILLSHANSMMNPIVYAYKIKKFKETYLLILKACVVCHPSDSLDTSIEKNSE

Assay [5] concerns the target T5, 5-hydroxytryptamine receptor 2B (Homo sapiens, UniProt P41595). In kind it is functional, cell-based.
Another assay addresses D(1A) dopamine receptor (Homo sapiens, UniProt P21728). The class given is functional, cell-based.
The target in a further assay is T6, Glucocorticoid receptor (Homo sapiens, UniProt P04150).
T6 sequence (P04150 whole entry): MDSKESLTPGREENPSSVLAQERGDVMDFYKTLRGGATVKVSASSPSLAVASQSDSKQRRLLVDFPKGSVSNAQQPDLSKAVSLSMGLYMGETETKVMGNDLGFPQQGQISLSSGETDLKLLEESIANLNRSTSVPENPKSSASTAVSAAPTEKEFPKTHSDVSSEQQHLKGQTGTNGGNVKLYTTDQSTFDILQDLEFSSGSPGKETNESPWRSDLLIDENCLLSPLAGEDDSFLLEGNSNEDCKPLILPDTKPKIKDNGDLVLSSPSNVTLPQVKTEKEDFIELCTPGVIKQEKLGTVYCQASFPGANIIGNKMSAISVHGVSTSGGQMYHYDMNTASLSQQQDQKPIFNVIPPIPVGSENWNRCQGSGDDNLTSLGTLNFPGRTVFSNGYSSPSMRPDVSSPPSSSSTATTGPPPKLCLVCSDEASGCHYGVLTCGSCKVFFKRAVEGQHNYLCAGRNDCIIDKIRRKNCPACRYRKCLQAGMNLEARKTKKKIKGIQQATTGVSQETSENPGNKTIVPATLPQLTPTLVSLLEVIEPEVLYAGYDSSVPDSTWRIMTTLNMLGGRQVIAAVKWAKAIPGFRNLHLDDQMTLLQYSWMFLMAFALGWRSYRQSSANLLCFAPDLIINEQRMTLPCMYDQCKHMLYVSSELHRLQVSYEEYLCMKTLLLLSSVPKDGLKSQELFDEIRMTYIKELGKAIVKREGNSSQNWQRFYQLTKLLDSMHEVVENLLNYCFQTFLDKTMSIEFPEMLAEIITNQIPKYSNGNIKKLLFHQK

The next assay concerns the target T7, B2 bradykinin receptor (Homo sapiens, UniProt P30411).
T7 sequence (P30411 whole entry): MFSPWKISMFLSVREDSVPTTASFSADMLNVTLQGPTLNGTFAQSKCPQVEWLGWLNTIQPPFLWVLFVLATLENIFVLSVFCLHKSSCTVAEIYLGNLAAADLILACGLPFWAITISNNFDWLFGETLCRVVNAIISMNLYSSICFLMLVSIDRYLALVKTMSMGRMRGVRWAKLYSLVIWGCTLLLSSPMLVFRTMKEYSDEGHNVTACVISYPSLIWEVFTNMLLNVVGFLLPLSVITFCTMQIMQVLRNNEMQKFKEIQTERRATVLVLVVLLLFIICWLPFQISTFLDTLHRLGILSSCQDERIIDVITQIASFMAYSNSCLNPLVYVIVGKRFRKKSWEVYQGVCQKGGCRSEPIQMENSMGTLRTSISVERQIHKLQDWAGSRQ

The target of assay [6] is T1, Cannabinoid receptor 1. The class given is functional, cell-based. This is another data set of the same source.
Assay [7] addresses T5, 5-hydroxytryptamine receptor 2B. In kind it is functional, cell-based. This is another data set of the same source.

The structures appear in SMILES notation.
Note: assay procedure not described here.

T1 sequence (P21554 whole entry): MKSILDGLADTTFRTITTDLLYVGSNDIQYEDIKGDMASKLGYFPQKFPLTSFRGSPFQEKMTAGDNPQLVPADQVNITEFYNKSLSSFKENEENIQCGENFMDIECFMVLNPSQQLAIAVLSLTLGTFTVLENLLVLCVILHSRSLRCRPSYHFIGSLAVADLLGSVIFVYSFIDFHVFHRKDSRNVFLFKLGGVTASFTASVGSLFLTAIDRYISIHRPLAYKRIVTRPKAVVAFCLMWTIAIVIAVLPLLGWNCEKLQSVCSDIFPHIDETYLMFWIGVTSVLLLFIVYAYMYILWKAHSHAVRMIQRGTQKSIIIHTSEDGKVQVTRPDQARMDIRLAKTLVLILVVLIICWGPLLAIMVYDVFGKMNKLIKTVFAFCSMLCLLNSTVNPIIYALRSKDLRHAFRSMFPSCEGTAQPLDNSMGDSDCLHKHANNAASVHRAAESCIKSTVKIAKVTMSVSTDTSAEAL
Chain of D(1A) dopamine receptor (P21728 whole entry): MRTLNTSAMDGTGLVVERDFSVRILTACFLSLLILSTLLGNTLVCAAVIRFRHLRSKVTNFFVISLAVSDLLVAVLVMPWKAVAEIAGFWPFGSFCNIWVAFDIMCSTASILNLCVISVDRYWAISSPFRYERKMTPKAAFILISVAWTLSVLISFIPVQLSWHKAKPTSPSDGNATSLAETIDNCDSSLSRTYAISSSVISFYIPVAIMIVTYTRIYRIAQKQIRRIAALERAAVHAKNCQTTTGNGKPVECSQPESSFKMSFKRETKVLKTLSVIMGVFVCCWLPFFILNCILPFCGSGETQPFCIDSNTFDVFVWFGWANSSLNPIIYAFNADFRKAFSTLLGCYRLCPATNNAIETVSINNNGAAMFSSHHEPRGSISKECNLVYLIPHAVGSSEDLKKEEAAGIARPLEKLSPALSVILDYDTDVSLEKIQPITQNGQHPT
T5 sequence (P41595 whole entry): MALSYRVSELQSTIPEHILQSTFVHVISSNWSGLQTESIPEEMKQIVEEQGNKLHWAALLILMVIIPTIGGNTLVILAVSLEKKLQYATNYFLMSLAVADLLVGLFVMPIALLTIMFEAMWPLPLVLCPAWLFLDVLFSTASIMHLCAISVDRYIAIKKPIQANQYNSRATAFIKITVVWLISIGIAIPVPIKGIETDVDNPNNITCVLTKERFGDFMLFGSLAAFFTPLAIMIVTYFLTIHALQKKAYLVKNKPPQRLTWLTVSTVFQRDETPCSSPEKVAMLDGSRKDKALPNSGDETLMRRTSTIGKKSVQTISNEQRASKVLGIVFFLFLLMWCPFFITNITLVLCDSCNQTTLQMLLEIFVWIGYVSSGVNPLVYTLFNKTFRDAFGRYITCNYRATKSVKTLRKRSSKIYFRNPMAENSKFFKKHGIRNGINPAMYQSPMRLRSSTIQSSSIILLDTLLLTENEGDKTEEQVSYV

One may read the AC50 as the midpoint of the concentration-response curve, whichever way the signal moves. Read a low AC50 as greater potency. In the case of `N#Cc1ccccc1-c1cc(-c2ccccn2)cn(-c2ccccc2)c1=O`, the AC50 (at Cannabinoid receptor 1 [1]; in [2]; in assay [3]; in assay [4]; at Adenosine receptor A3; in assay [5]) was over 30 µM each time. For the same compound, the AC50 (on D(1A) dopamine receptor; at Glucocorticoid receptor; on B2 bradykinin receptor; at Cannabinoid receptor 1 [6]; in assay [7]) was over 30 µM each time.
As to `N=C(N)NCCCCCCC(=O)NC(O)C(=O)NCCCCNCCCN` (centres undefined), the AC50 (on Cannabinoid receptor 1 [1]; in assay [2]; in assay [3]; in [4]; on Adenosine receptor A3; in assay [5]) was over 30 µM in each case. Further, the AC50 (at D(1A) dopamine receptor; at Glucocorticoid receptor; at B2 bradykinin receptor; on Cannabinoid receptor 1 [6]; in [7]) was over 30 µM each time.
As for `C=C[C@@]1(C)CC(=O)[C@]2(O)[C@@]3(C)[C@@H](O)CCC(C)(C)[C@@H]3[C@H](OC(=O)CCN(C)C)[C@H](OC(C)=O)[C@@]2(C)O1`, the AC50 (at Cannabinoid receptor 1 [1]; in [2]; in assay [3]; in [4]; at Adenosine receptor A3; in [5]) was over 30 µM throughout. Also, the AC50 (on Glucocorticoid receptor; on B2 bradykinin receptor; at Cannabinoid receptor 1 [6]; in [7]) was over 30 µM in each case.
In the case of `O=C(CCCN1CCC(n2c(O)nc3ccccc32)CC1)c1ccc(F)cc1` [BENPERIDOL], the half-maximal activity concentration (AC50) is over 30 µM at Cannabinoid receptor 1 [1]; over 30 µM in [2]; 11 µM in assay [3]; over 30 µM at Adenosine receptor A3; over 30 µM in assay [5]; over 30 µM at D(1A) dopamine receptor. The half-maximal activity concentration (AC50) is over 30 µM on Glucocorticoid receptor, over 30 µM at B2 bradykinin receptor, over 30 µM on Cannabinoid receptor 1 [6] and 6.59 µM in assay [7].
As for `Clc1ccc(C(Cn2ccnc2)OCc2ccc(Sc3ccccc3)cc2)c(Cl)c1` (centres undefined) [FENTICONAZOLE], the AC50 at Cannabinoid receptor 1 [1] was 1.3 µM; in assay [2] it was over 30 µM; in assay [4], over 30 µM; on Adenosine receptor A3 it was 6.4 µM; in assay [5], over 30 µM; on D(1A) dopamine receptor, over 30 µM. The AC50 (on Glucocorticoid receptor; on B2 bradykinin receptor; on Cannabinoid receptor 1 [6]; in [7]) was over 30 µM throughout.
For `CC1(C)C(/C=C/C=C/C=C/C=C2\N(CCCCS(=O)(=O)O)c3ccc4ccccc4c3C2(C)C)=[N+](CCCCS(=O)(=O)[O-])c2ccc3ccccc3c21` [INDOCYANINE GREEN ACID FORM], the AC50 is over 30 µM in [4]; 3 µM at Adenosine receptor A3; over 30 µM on Glucocorticoid receptor; 26 µM on B2 bradykinin receptor; 9.3 µM at Cannabinoid receptor 1 [6].
Consider `NC(=O)CCC/N=C(\c1ccc(Cl)cc1)c1cc(F)ccc1O` [PROGABIDE], for which the AC50 (in assay [2]; in [3]; in assay [4]; at Adenosine receptor A3; in assay [5]; at D(1A) dopamine receptor) was over 10 µM each time. The AC50 on Glucocorticoid receptor was over 10 µM; on B2 bradykinin receptor, over 10 µM; on Cannabinoid receptor 1 [6], over 30 µM; in assay [7], over 10 µM.
Take `Cc1ccc2c(-c3ccccc3)nc(=O)n(C(C)C)c2c1` [PROQUAZONE]: the AC50 is over 30 µM on Cannabinoid receptor 1 [1]; over 30 µM in assay [2]; over 30 µM in [3]; over 30 µM in assay [4]; 23 µM on Adenosine receptor A3; over 30 µM in assay [5]. In addition, the AC50 on D(1A) dopamine receptor is over 30 µM; at Glucocorticoid receptor it was over 30 µM; at B2 bradykinin receptor it was over 10 µM; at Cannabinoid receptor 1 [6] it was over 30 µM.
With `CN1CCN(c2c(F)cc3c(=O)c(C(=O)O)cn4c3c2SCC4)CC1` [RUFLOXACIN], the AC50 (on Cannabinoid receptor 1 [1]; in assay [2]; in assay [3]; in assay [4]; on Adenosine receptor A3; in [5]) was over 30 µM in each case. In addition, the AC50 at D(1A) dopamine receptor, at Glucocorticoid receptor, on B2 bradykinin receptor and at Cannabinoid receptor 1 [6] was over 30 µM throughout.
As for `CC(C)CC(N(C)C)C1(c2ccc(Cl)cc2)CCC1` (centres undefined) [SIBUTRAMINE], the AC50 at Cannabinoid receptor 1 [1] was over 30 µM; in assay [2], over 30 µM; in [3], 0.75 µM; in assay [4], over 10 µM; on Adenosine receptor A3 it was over 30 µM; at D(1A) dopamine receptor, over 10 µM. Also, the AC50 on Glucocorticoid receptor, at B2 bradykinin receptor and on Cannabinoid receptor 1 [6] was over 30 µM throughout.
`Cc1cccc(N(C)C(=S)Oc2ccc3ccccc3c2)c1` [TOLNAFTATE]: the AC50 in [2] was over 10 µM; in assay [3] it was over 10 µM; in assay [4] it was over 30 µM; at Adenosine receptor A3, over 10 µM; in [5], over 10 µM; on D(1A) dopamine receptor, over 30 µM. Further, the AC50 at Glucocorticoid receptor was over 30 µM; at B2 bradykinin receptor it was over 10 µM; in [7], over 10 µM.
For `N#C[C@@H]1CCCN1C(=O)CNC12CC3CC(CC(O)(C3)C1)C2` [VILDAGLIPTIN], the AC50 (in assay [2]; in assay [3]; in assay [4]; on Adenosine receptor A3; in [5]; on D(1A) dopamine receptor) was over 30 µM in each case. In addition, the AC50 (on Glucocorticoid receptor; at B2 bradykinin receptor; in [7]) was over 30 µM each time.

For the origin of these results see ChEMBL document CHEMBL5291721, “A preclinical secondary pharmacology resource illuminates target-adverse drug reaction associations of marketed drugs” (Nat Commun, 2023).
